We go through 26 compounds from patent publication US7109186B2 (Bristol-Myers Squibb Company, priority 2002, dated 2006).

Series [1] has as its target T1, HIV-integrase (Human immunodeficiency virus type 1 group M subtype B, UniProt P04585).
T1 construct: 0.26 ng of recombinant integrase was incubated with the beads for 90 min at 37 C
In words: HIV integrase SPA integration assay (biotin-labeled substrate DNA on streptavidin SPA beads, P33-labeled target DNA). It is filed as biochemical. As to conditions: percent inhibition of HIV-integrase in the presence of 20 μM of compound. The protocol:
For each reaction, 5 pmole of biotin labeled substrate DNA was bound to 100 ug of Streptavidin coated PVT SPA beads (Amersham Pharmacia Biotech). 0.26 ng of recombinant integrase was incubated with the beads for 90 min at 37 C. Unbound enzyme was removed by washing the complex followed by addition of inhibitors and 0.1 fmol of P33 labeled target DNA. Reaction was stopped by adding EDTA to a final concentration of 10 mM. Samples were counted in TopCountNXT (Packard) and the CPM was used as a measure of integration. Reaction condition was as described in A. Engelman and R. Craigie, J. Virol. 69, 5908–5911 (1995). The sequences of substrate and target DNA were described in Nucleic Acid Research 22, 1121–1122 (1994).

Each structure is given as a SMILES string.

As a reminder, the inhibition is the percentage by which the read-out fell short of the control. Usually melting point stands for the temperature, or range, at which the solid turns liquid.

Regarding `CN(Cc1ccc(Cl)c(Cl)c1)C(=O)C1=C(O)C(=O)N(CCC(=O)O)C1` [Compound 18, 3-[4-[(3,4-dichloro-benzyl)-methyl-carbamoyl]-3-hydroxy-2-oxo-2,5-dihydro-pyrrol-1-yl]-propionic acid], the melting point is 183 to 184 °C. In addition, in series [1], the inhibition at 20 µM stood at 99.9%.

In the case of `CN(Cc1ccc(Cl)c(Cl)c1)C(=O)C1=C(O)C(=O)N(CC(=O)O)C1` [Compound 20, {4-[(3,4-Dichloro-benzyl)-methyl-carbamoyl]-3-hydroxy-2-oxo-2,5-dihydro-pyrrol-1-yl}-acetic acid], the melting point lay in the range of 178 to 180 °C. Moreover, the inhibition at 20 µM in series [1] was determined as 99.9%.

Compound `CON(Cc1ccc(Cl)c(Cl)c1)C(=O)C1=C(O)C(=O)N(C)C1` [Compound 47, 4-Hydroxy-1-methyl-5-oxo-2,5-dihydro-1H-pyrrole-3-carboxylic acid (3,4-dichloro-benzyl)-methoxy-amide] registered a melting point of 149 °C. Further, the inhibition at 20 µM in series [1] came out at 99.9%.

Regarding `CON(Cc1cccc(F)c1)C(=O)C1=C(O)C(=O)N(C)C1` [Compound 49, 4-Hydroxy-1-methyl-5-oxo-2,5-dihydro-1H-pyrrole-3-carboxylic acid (3-fluoro-benzyl)-methoxy-amide], the melting point was 119 °C (dec.). Further, the inhibition at 20 µM in series [1] is 98.5%.

For `CON(Cc1ccccc1F)C(=O)C1=C(O)C(=O)N(C)C1` [Compound 50, 4-Hydroxy-1-methyl-5-oxo-2,5-dihydro-1H-pyrrole-3-carboxylic acid (2-fluoro-benzyl)-methoxy-amide], the melting point was 147 °C (dec.). Further, in series [1], the inhibition at 20 µM amounted to 92%.

In the case of `CON(Cc1ccc(Cl)cc1)C(=O)C1=C(O)C(=O)N(C)C1` [Compound 51, 4-Hydroxy-1-methyl-5-oxo-2,5-dihydro-1H-pyrrole-3-carboxylic acid (4-chloro-benzyl)-methoxy-amide], the melting point was 165 °C (dec.). The inhibition at 20 µM in series [1] is 99.9%.

With `CON(CCc1ccc(F)cc1)C(=O)C1=C(O)C(=O)N(C)C1` [Compound 52, 4-Hydroxy-1-methyl-5-oxo-2,5-dihydro-1H-pyrrole-3-carboxylic acid [2-(4-fluoro-phenyl)-ethyl]-methoxy-amide], the melting point was 157 °C (dec.). For the same compound, in series [1], the inhibition at 20 µM came to 86%.

In turn, `CCON(Cc1ccc(F)cc1)C(=O)C1=C(O)C(=O)N(C)C1` [Compound 53, 4-Hydroxy-1-methyl-5-oxo-2,5-dihydro-1H-pyrrole-3-carboxylic acid ethoxy-(4-fluoro-benzyl)-amide] had a melting point of 113 to 114 °C. In series [1], the inhibition at 20 µM worked out at 99%.

`CON(Cc1ccc(F)c(F)c1)C(=O)C1=C(O)C(=O)N(C)C1` [Compound 54, 4-Hydroxy-1-methyl-5-oxo-2,5-dihydro-1H-pyrrole-3-carboxylic acid (3,4-difluoro-benzyl)-methoxy-amide] yielded a melting point of 146 to 147 °C. The inhibition at 20 µM in series [1] is 99.9%.

`COc1ccc(CN(OC)C(=O)C2=C(O)C(=O)N(C)C2)cc1` [Compound 55, 4-Hydroxy-1-methyl-5-oxo-2,5-dihydro-1H-pyrrole-3-carboxylic acid methoxy-(4-methoxy-benzyl)-amide] displayed a melting point of 135 to 137 °C. The inhibition at 20 µM in series [1] turned out to be 99.9%.

For `CON(Cc1ccccc1C)C(=O)C1=C(O)C(=O)N(C)C1` [Compound 56, 4-Hydroxy-1-methyl-5-oxo-2,5-dihydro-1H-pyrrole-3-carboxylic acid methoxy-(2-methyl-benzyl)-amide], the melting point lay in the range of 153 to 154 °C. For the same compound, in series [1], the inhibition at 20 µM is 88%.

As for `CON(Cc1ccc(F)c(Br)c1)C(=O)C1=C(O)C(=O)N(C)C1` [Compound 57, 4-Hydroxy-1-methyl-5-oxo-2,5-dihydro-1H-pyrrole-3-carboxylic acid (3-bromo-4-fluoro-benzyl)-methoxy-amide], the melting point is 154 to 157 °C (dec.). Moreover, the inhibition at 20 µM in series [1] stood at 99.9%.

`CC(C)CON(Cc1ccc(F)cc1)C(=O)C1=C(O)C(=O)N(C)C1` [Compound 58, 4-Hydroxy-1-methyl-5-oxo-2,5-dihydro-1H-pyrrole-3-carboxylic acid (4-fluoro-benzyl)-isobutoxy-amide] showed a melting point of 96 to 97 °C. In addition, the inhibition at 20 µM in series [1] amounted to 99.5%.

As to `CON(Cc1ccc(C)cc1)C(=O)C1=C(O)C(=O)N(C)C1` [Compound 59, 4-Hydroxy-1-methyl-5-oxo-2,5-dihydro-1H-pyrrole-3-carboxylic acid methoxy-(4-methyl-benzyl)-amide], the melting point is 150 to 152 °C. In addition, in series [1], the inhibition at 20 µM was 99.9%.

Turning to `CON(Cc1ccc(C#N)cc1)C(=O)C1=C(O)C(=O)N(C)C1` [Compound 62, 4-Hydroxy-1-methyl-5-oxo-2,5-dihydro-1H-pyrrole-3-carboxylic acid (4-cyano-benzyl)-methoxy-amide], the melting point is 161 °C (dec.). Moreover, the inhibition at 20 µM in series [1] was determined as 97.7%.

`CON(Cc1ccc(NC(C)=O)cc1)C(=O)C1=C(O)C(=O)N(C)C1` [Compound 63, 4-Hydroxy-1-methyl-5-oxo-2,5-dihydro-1H-pyrrole-3-carboxylic acid (4-acetylamino-benzyl)-methoxy-amide] yielded a melting point of 110 °C. Moreover, the inhibition at 20 µM in series [1] was 12%.

As for `CON(Cc1ccc(F)c(C)c1)C(=O)C1=C(O)C(=O)N(C)C1` [Compound 64, 4-Hydroxy-1-methyl-5-oxo-2,5-dihydro-1H-pyrrole-3-carboxylic acid (4-fluoro-3-methyl-benzyl)-methoxy-amide], the melting point lay in the range of 160 to 164 °C. The inhibition at 20 µM in series [1] came out at 99.7%.

The compound `CON(Cc1ccc(C)c(F)c1)C(=O)C1=C(O)C(=O)N(C)C1` [Compound 65, 4-Hydroxy-1-methyl-5-oxo-2,5-dihydro-1H-pyrrole-3-carboxylic acid (3-fluoro-4-methyl-benzyl)-methoxy-amide] yielded a melting point of 145 °C. Further, in series [1], the inhibition at 20 µM was 99.9%.

`CON(Cc1ccc(C(=O)O)cc1)C(=O)C1=C(O)C(=O)N(C)C1` [Compound 68, 4-{[(4-Hydroxy-1-methyl-5-oxo-2,5-dihydro-1H-pyrrole-3-carbonyl)-methoxy-amino]-methyl}-benzoic acid] had a melting point of 196 to 197 °C. The inhibition at 20 µM in series [1] was 12%.

Compound `CON(C(=O)C1=C(O)C(=O)N(C)C1)C(C)c1ccc(F)cc1` (stereo not shown) [Compound 69, 4-Hydroxy-1-methyl-5-oxo-2,5-dihydro-1H-pyrrole-3-carboxylic acid [1-(4-fluoro-phenyl)-ethyl]-methoxy-amide] yielded a melting point of 136 to 138 °C. Further, in series [1], the inhibition at 20 µM was 97%.

In turn, `CN1CC(C(=O)N(Cc2ccc(F)cc2)OCC(=O)OC(C)(C)C)=C(O)C1=O` [Compound 70] showed a melting point of 128 to 130 °C. In series [1], the inhibition at 20 µM turned out to be 99.8%.

As to `CN1CC(C(=O)N(Cc2ccc(F)cc2)OCC(=O)O)=C(O)C1=O` [Compound 71, [(4-Fluoro-benzyl)-(4-hydroxy-1-methyl-5-oxo-2,5-dihydro-1H-pyrrole-3-carbonyl)-aminooxy]-acetic acid], the melting point is 147 to 150 °C. For the same compound, in series [1], the inhibition at 20 µM amounted to 99.9%.

Compound `CN(C)C(=O)CON(Cc1ccc(F)cc1)C(=O)C1=C(O)C(=O)N(C)C1` [Compound 72, 4-Hydroxy-1-methyl-5-oxo-2,5-dihydro-1H-pyrrole-3-carboxylic acid dimethylcarbamoylmethoxy-(4-fluoro-benzyl)-amide] came in with a melting point of 147 to 149 °C. Also, the inhibition at 20 µM in series [1] amounted to 98.8%.

The compound `CON(Cc1ccc(F)cc1Cl)C(=O)C1=C(O)C(=O)N(C)C1` [Compound 74, 4-Hydroxy-1-methyl-5-oxo-2,5-dihydro-1H-pyrrole-3-carboxylic acid (2-chloro-4-fluoro-benzyl)-methoxy-amide] came in with a melting point of 152 to 155 °C. In series [1], the inhibition at 20 µM amounted to 97.8%.

In turn, `CN1CC(C(=O)N(C)C(Cc2ccc(Cl)cc2)Cc2ccc(Cl)cc2)=C(O)C1=O` [Compound 75, 4-Hydroxy-1-methyl-5-oxo-2,5-dihydro-1H-pyrrole-3-carboxylic acid [1-(4-chloro-benzyl)-2-(4-chloro-phenyl)-ethyl]-methyl-amide] yielded a melting point of 152 to 154 °C. Besides, in series [1], the inhibition at 20 µM was 96.5%.

On to `CN1CC(C(=O)N(Cc2ccc(F)cc2)c2ccc(Cl)c(Cl)c2)=C(O)C1=O` [Compound 78, 4-Hydroxy-1-methyl-5-oxo-2,5-dihydro-1H-pyrrole-3-carboxylic acid (3,4-dichloro-phenyl)-(4-fluoro-benzyl)-amide], for which the melting point is 195 °C (dec.). Besides, the inhibition at 20 µM in series [1] stood at 99.9%.
